Assay results from ChEMBL document CHEMBL2311387, “Dose-dependent interaction of trans-resveratrol with biomembranes: effects on antioxidant property” (J Med Chem, 2013).
Active and inactive are the calls of the source. The rule behind the calls is not given here.

Assays:
[1] = Induction of budding morphology in human erythrocytes up to 100 uM after 1 hr by cold field emission scanning electron microscopic analysis; assay type: cell-based; conditions: erythrocyte
[2] = Induction of blebbing morphology in human erythrocytes up to 100 uM after 1 hr by cold field emission scanning electron microscopic analysis; assay type: cell-based; conditions: erythrocyte
[3] = Binding affinity to curcumin encapsulated liposomes assessed as curcumin release from unilamellar vesicles at 100 uM after 20 mins NMR spectroscopic analysis
[4] = Binding affinity to curcumin encapsulated liposomes assessed as curcumin release from unilamellar vesicles after 20 mins by NMR spectroscopic analysis
[5] = Binding affinity to planer lipid bilayer assessed as change in height of semicircle pattern by admittance spectroscopic analysis; assay type: physicochemical
[6] = Binding affinity to planer lipid bilayer assessed as reduction in charge transfer resistance by admittance spectroscopic analysis; assay type: physicochemical
[7] = Binding affinity to planer lipid bilayer assessed as change in diameter of semicircle pattern by admittance spectroscopic analysis; assay type: physicochemical
[8] = Binding affinity to planer lipid bilayer assessed as reduction in diameter of semicircle pattern at up to 60 uM by admittance spectroscopic analysis; assay type: physicochemical
[9] = Binding affinity to planer lipid bilayer assessed as increase in cathodic current by cyclic voltammetric analysis; assay type: physicochemical
[10] = Binding affinity to planer lipid bilayer assessed as increase in anodic current by cyclic voltammetric analysis; assay type: physicochemical
[11] = Antioxidant activity in planer lipid bilayer membrane assessed as inhibition of DPPH-induced reduction in height of semicircle at 50 to 100 uM by admittance spectroscopic analysis; assay type: functional, cell membranes
[12] = Induction of morphological changes in human erythrocytes at => 60 uM after 1 hr by cold field emission scanning electron microscopic analysis; assay type: cell-based; conditions: erythrocyte
MCF7 = assay: Cytotoxicity against human MCF7 cells at 100 uM after 24 hrs by MTS assay; assay type: cell-based; conditions: mcf7, 24 h
[13] = Antioxidant activity in planer lipid bilayer membrane assessed as reduction in 100 uM DPPH-induced charge transfer resistance at 100 uM by admittance spectroscopic analysis; assay type: functional, cell membranes; set-up: scale not given: the % may be the effect or the level left
[14] = Antioxidant activity in planer lipid bilayer membrane assessed as reduction in 100 uM DPPH-induced charge transfer resistance at 50 uM by admittance spectroscopic analysis; assay type: functional, cell membranes; set-up: scale not given: the % may be the effect or the level left
[15] = Antioxidant activity in planer lipid bilayer membrane assessed as reduction in 50 uM DPPH-induced charge transfer resistance at 100 uM by admittance spectroscopic analysis; assay type: functional, cell membranes; set-up: scale not given: the % may be the effect or the level left
[16] = Antioxidant activity in planer lipid bilayer membrane assessed as reduction in 50 uM DPPH-induced charge transfer resistance at 50 uM by admittance spectroscopic analysis; assay type: functional, cell membranes; set-up: scale not given: the % may be the effect or the level left
[17] = Antioxidant activity in planer lipid bilayer membrane assessed as inhibition of DPPH-induced reduction in diameter of semicircle at 50 to 100 uM by admittance spectroscopic analysis; assay type: functional, cell membranes
[18] = tested on: Radical scavenging activity; assay: Antioxidant activity assessed as DPPH free radical scavenging activity at >100 uM after 45 mins by UV-visible spectrophotometric analysis relative to vitamin C; assay type: functional
[19] = tested on: Radical scavenging activity; assay: Antioxidant activity assessed as DPPH free radical scavenging activity at <100 uM after 45 mins by UV-visible spectrophotometric analysis relative to vitamin C; assay type: functional
[20] = Induction of destruction morphology in human erythrocytes up to 100 uM after 1 hr by cold field emission scanning electron microscopic analysis; assay type: cell-based; conditions: erythrocyte

Activity [3]: 17%
Activity [4]: Dose-dependent effect
Activity [5]: Dose-dependent effect
Activity [6]: Active
Activity [7]: Dose-dependent effect
Activity [8]: Active
Activity [9]: Dose-dependent effect
Activity [10]: Dose-dependent effect
Compound: Oc1ccc(/C=C/c2cc(O)cc(O)c2)cc1 [RESVERATROL]
Activity [1]: Toxic
Activity [2]: Toxic
inhibition [11]: Active
Activity [12]: Non-toxic
Activity (MCF7): 50%
Activity [13]: 10.9%
Activity [14]: 22%
Activity [15]: 7.7%
Activity [16]: 19.5%
inhibition [17]: Active
Activity [18]: Active
Activity [19]: Active
Activity [20]: Toxic
